19 compounds from ChEMBL document CHEMBL2331209, “Mechanistic studies of the inactivation of tyrosinase by resorcinol” (Bioorg Med Chem, 2013) can be followed below.

Experiment [1] has as its target T1, Tyrosinase (Homo sapiens) (UniProt P14679).
T1 sequence (whole entry): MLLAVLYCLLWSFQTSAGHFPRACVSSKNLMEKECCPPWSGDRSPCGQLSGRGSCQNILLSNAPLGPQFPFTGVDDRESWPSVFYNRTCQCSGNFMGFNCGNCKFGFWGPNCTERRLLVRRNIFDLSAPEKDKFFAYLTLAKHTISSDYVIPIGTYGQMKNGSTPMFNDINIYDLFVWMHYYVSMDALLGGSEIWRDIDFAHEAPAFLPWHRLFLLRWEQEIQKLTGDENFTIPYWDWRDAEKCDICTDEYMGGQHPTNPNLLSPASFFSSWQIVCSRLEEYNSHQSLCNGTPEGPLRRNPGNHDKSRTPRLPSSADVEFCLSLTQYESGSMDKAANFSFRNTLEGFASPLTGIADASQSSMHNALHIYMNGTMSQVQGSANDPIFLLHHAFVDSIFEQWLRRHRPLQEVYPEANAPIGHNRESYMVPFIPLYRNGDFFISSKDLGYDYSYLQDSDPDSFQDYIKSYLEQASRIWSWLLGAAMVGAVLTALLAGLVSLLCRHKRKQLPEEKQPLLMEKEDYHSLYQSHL
The experiment in a line: Inactivation of tyrosinase (unknown origin) assessed as total oxygen uptake using 4-methylcatechol substrate at 850 uM equimolar concentrations resorcinol by spectrophotometry.

Experiment [2] addresses T1, Tyrosinase (Homo sapiens). The experiment in a line: Inactivation of tyrosinase (unknown origin) assessed as decay half-life using 4-methylcatechol substrate at 850 uM equimolar concentrations resorcinol by spectrophotometry.
Experiment [3] deals with T1, Tyrosinase (Homo sapiens). The experiment in a line: Inactivation of tyrosinase (unknown origin) assessed as initial rate of oxygen utilization using 4-methylcatechol substrate at 850 uM equimolar concentrations resorcinol by spectrophotometry.
In experiment [4] the target is T1, Tyrosinase (Homo sapiens). Description: Inactivation of tyrosinase (unknown origin) assessed as initial rate of oxygen utilization at absorbance 400 nm using 4-methylcatechol substrate at 850 uM equimolar concentrations resorcinol by spectrophotometry.
The target of experiment [5] is T1, Tyrosinase (Homo sapiens). Description: Inactivation of tyrosinase (unknown origin) assessed as initial rate of oxygen utilization at absorbance 400 nm using 4-methylcatechol substrate at 850 uM by spectrophotometry.
The target of experiment [6] is T1, Tyrosinase (Homo sapiens). Description: Inactivation of tyrosinase (unknown origin) assessed as decay half-life using 4-methylcatechol substrate at 850 uM by spectrophotometry.
Experiment [7] concerns the target T1, Tyrosinase (Homo sapiens). Description: Inactivation of tyrosinase (unknown origin) assessed as total oxygen uptake using 4-methylcatechol substrate at 850 uM by spectrophotometry.
Experiment [8] deals with T1, Tyrosinase (Homo sapiens). The experiment in a line: Inactivation of tyrosinase (unknown origin) assessed as initial rate of oxygen utilization using 4-methylcatechol substrate at 850 uM by spectrophotometry.

Structures are written as SMILES.

As for `Oc1cc(O)c(Cl)cc1Cl`, the values for the Activity in experiment [1], in experiment [3] and in experiment [4] were 33%, 29% and 22%, respectively. Besides, the Decay half-life in experiment [2] came out at 160%.
Regarding `Oc1cccc(O)c1`, the Activity in experiment [5] was 26%; in experiment [6], 75%; in experiment [7], 37%; in experiment [8] it was 32%.
As for `Oc1ccc(F)c(O)c1`, the Activity in experiment [1] was found to be 0%; in experiment [3] it was 6%; in experiment [4], 10%.
Regarding `Cc1cc(C)c(O)cc1O`, the Activity in experiment [1] came to 69%; in experiment [3] it was 46%; in experiment [4], 57%. Moreover, the Decay half-life in experiment [2] stood at 193%.
Consider `Oc1cc(O)c(F)cc1F`, for which the values for the Activity in experiment [1], in experiment [3] and in experiment [4] were 29%, 30% and 30%, respectively. Further, the Decay half-life in experiment [2] was found to be 83%.
Turning to `Cc1cc(O)c(C)c(O)c1`, the Activity came out at 117% in experiment [1], 97% in experiment [3] and 103% in experiment [4]. Moreover, in experiment [2], the Decay half-life is 82%.
Take `Oc1ccc(F)c(O)c1F`: the values for the Activity in experiment [1], in experiment [3] and in experiment [4] were 30%, 18% and 28%, respectively. For the same compound, the Decay half-life in experiment [2] stood at 48%.
In the case of `Oc1cc(O)cc(O)c1`, the figures for the Activity in experiment [1], in experiment [3] and in experiment [4] were 75%, 95% and 133%, respectively. For the same compound, the Decay half-life in experiment [2] is 81%.
Consider `Oc1cccc(O)c1O`, for which the Activity in experiment [1], in experiment [3] and in experiment [4] was 100% in each case.
Turning to `Oc1c(F)c(O)c(F)c(F)c1F`, the Activity in experiment [1] is 75%; in experiment [3] it was 91%; in experiment [4], 86%. The Decay half-life in experiment [2] amounted to 97%.
As to `Oc1cc(F)cc(O)c1F`, the Activity worked out at 31% in experiment [1], 41% in experiment [3] and 51% in experiment [4]. The Decay half-life in experiment [2] was 74%.
For `Oc1cccc(O)c1Cl`, the Activity in experiment [1] was 69%; in experiment [3], 60%; in experiment [4], 79%. In addition, the Decay half-life in experiment [2] stood at 72%.
Take `Cc1cc(O)cc(O)c1`: the values for the Activity in experiment [1], in experiment [3] and in experiment [4] were 28%, 63% and 46%, respectively. In addition, in experiment [2], the Decay half-life amounted to 31%.
With `Oc1c(Cl)cc(Cl)c(O)c1Cl`, the Activity in experiment [1] came to 86%; in experiment [3] it was 110%; in experiment [4] it was 105%. Further, the Decay half-life in experiment [2] turned out to be 73%.
For `Oc1cc(O)cc(F)c1` the same measures were 52%, 67%, 46% and 122%.
For the compound `Cc1c(O)cccc1O`, the Activity in experiment [1] was determined as 90%; in experiment [3], 105%; in experiment [4] it was 103%. Moreover, the Decay half-life in experiment [2] worked out at 82%.
For `COc1cc(O)cc(O)c1` the same measures were 26%, 64%, 62% and 22%.
With `CCc1ccc(O)cc1O`, the figures for the Activity in experiment [1], in experiment [3] and in experiment [4] were 0%, 1% and < 1%, respectively.
For `Oc1cccc(O)c1F`, the Activity in experiment [1] is 35%; in experiment [3] it was 33%; in experiment [4] it was 40%. Also, the Decay half-life in experiment [2] turned out to be 68%.
